Measurements as given in patent US20130317092A1 (priority 2007, published 2013).

Key:
U937 cells = assay: Nitric oxide production (Griess) in U937 cells; type: cell-based, human; conditions: 24 h, 1 μg/ml LPS, 100 μM ACh
IL-6 = IL-6 production by peritoneal macrophages from FVB/N and TgR mice; type: cell-based, mouse; conditions: 100 μM ACh
IL-1β, TNFα = IL-1β, TNFα production (ELISA) by bone marrow dendritic cells from FVB/N and TgR mice; type: cell-based, mouse; conditions: TgR dendritic cells, LPS and ACh
IL-12 = IL-12 production by peritoneal macrophages from FVB/N and TgR mice; type: cell-based, mouse
TNFα = TNFα production by peritoneal macrophages from FVB/N and TgR mice; type: cell-based, mouse
NFκB = NFκB localisation by immunohistochemistry in mouse bone marrow macrophages; type: cell-based; conditions: LPS, LPS+ACh
TBP = TBP transcript in human PBMC (real-time RT-PCR); type: cell-based
macrophage miRNAs = assay: Spotted microarray miRNA profile of primary human macrophages; type: cell-based
From the text: Macrophages were isolated from buffy coats from healthy donors, underwent pooling that elicited mixed leukocyte response (MLR) and subjected in vitro to several distinct agents or combinations thereof, some known to elicit macrophage activation (listed in Table 2, hereinbelow).
The mirVana (Ambion, Austin, Tex.) oligonucleotide set was used to construct the in-house array. The microarray carried 200 spotted probes complementary to known human and mouse miRNAs. To compose the array, the mirVana probeset was dissolved in 3×SSC to a final concentration of […], and printed on Ultragaps slides (Corning, Corning, N.Y.), using the MicroGrid spotter (Genomic Solutions, Holliston, Mass.). The array layout contained 12 subgrids, each composed of 11 rows and 12 columns. Each oligonucleotide was spotted 6 times on the array. The experiments were designed for comparison of two samples. Data was therefore always relative rather than absolute. In these experiments, a “reference design” (Churchill, 2002, Nature genetics, 32, 490-495) was used, in which RNA from cells or tissues is compared. In addition, dye-swapping tests were performed, aimed to exclude dye-specific labeling differences (Dombkowski et al., 2004, FEBS Lett, 560, 120-124). Labeling was performed using the CyDye reactive dye pack (Amersham, NSW, Australia), as instructed. Pre-hybridization was in pre-heated S×SSC, 1% BSA, 0.1% SDS solution, at 42° C. for 45 min. Cy3 and Cy5-labeled fragmented RNA (3 ug each) were added to the hybridization solution (3×SSC, 0.1% SDS, 10 μg polyA, 20 μg tRNA), heated at 95° C. for 4 minutes for eliminating secondary structures and applied to the slides in hybridization chambers (Corning, N.Y., USA) for 15 h at 64° C. Hybridized slides were successively washed in: 1×SSC, 0.1% SDS (5 min); 0.1×SSC, 0.1% SDS (5 min) and 0.1×SSC (3×1.5 min) and were dried by centrifugation (˜1000 g).
This was adapted from (Ben-Ari S, et al., J. Neurochem. 2006 April; 97 Suppl 1:24-34.) Briefly, an Affymetrix 428 Array Scanner was used at the maximum gain setting, at the wavelengths of 532 nm and 650 nm Scans were controlled by the “Jaguar” software (Affymetrix, Calif., USA), saved as TIFF files and exported to the “Imagene” program (Biodiscovery Inc, CA, USA) to define the spots, convert the intensity signals into numbers and calculate quality parameters such as “shape regularity”, “empty spot” etc. Data normalization, exclusion of unreliable spots and combining the information from all 4 slides were performed in an in-house Matlab program. First, median background was subtracted from the median signal intensity, to normalize background noises. Background area was defined as a circle of 5 pixels diameter separated from the signal area by 4 pixels. […]. Spot quality was examined according to pre-defined Imagene's parameters, standard deviation of pixels intensity in each spot etc. Spots with intensities below the threshold derived from the negative control spots or with saturated pixel values were excluded. The Cy3 and Cy5 signal intensities of each spot were normalized to the mean Cy3 and Cy5 intensities in the slide. For each spot, an initial Cy3/Cy5 ratio has been calculated, and was transformed to a log 2 basis. This value was designated LR (log 2 ratio). […]. Then, results from all valid spots (up to 6) representing the same oligonucleotide were combined. Probes with less than 3 valid spots were excluded, and median and mean LR were calculated.
Covariance between treatments was calculated in OpenOffice 1.1 for Mac OS X, using the entire miRNA collection represented on the chip (for signals that failed the MatLab analysis, a Median LR value of 0 was assigned).
The mirVana oligo set (Ambion, Austin, Tex.; Catalog number 1564V1) was used to construct our in-house array with >200 spotted probes complementary to known human and mouse miRs. […]

CD54 and CD40 = conditions: cited from earlier work
ASF/SF2 = assay: Splicing factor ASF/SF2 in human PBMC (real-time RT-PCR); type: cell-based
AChmiRNA = AChmiRNA expression in human PBMC (quantitative RT-PCR); type: cell-based
BDP1 = BDP1 transcript in human PBMC (real-time RT-PCR); type: cell-based
[1] = test system: Inducible Nitric Oxide Synthetase (iNOS); assay: iNOS by QRT-PCR in transfected primary human macrophages; type: cell-based; conditions: primary human macrophages transfected with LNA-modified oligo
Protocol: (§1) Primary human macrophages obtained from donors using methods which are well known in the art.
(§2) RT was performed using SuperScript III kit reagents (Invitrogen) as per kit instructions, and ABI-7900HT (Applied Biosystems) equipped with dedicated software (ver. 2) was used to amplify the resulting cDNA template (SYBR Green I RNA amplification kit, Roche). Triplicate values of each treatment were normalized to β-actin mRNA.

AChE-S mRNA = AChE-S mRNA by QRT-PCR in transfected primary human macrophages; type: cell-based; conditions: primary human macrophages transfected with LNA-modified oligo
Protocol: as §1
(§3) anti132 is set forth in CG+ACC+ATG+GCT+GTA+GAC+TGT+TA (SEQ ID NO: 109), anti182 is set forth in 5′T+AgT+Tgg+CAA+gTC+TAg+AAC+CA3′(SEQ ID NO: 110), whereby LNA modification is marked as + before the modified nucleotide.
as §2

AChE-R mRNA = AChE-R mRNA by QRT-PCR in transfected primary human macrophages; type: cell-based; conditions: primary human macrophages transfected with LNA-modified oligo
Protocol: as §1, §3, §2

[2] = test system: 3′UTR fragment of human AChE cDNA; assay: Dot blot hybridization of LNA-modified oligos with PCR-amplified AChE 3′UTR; type: binding; conditions: 5′-32P-labeled LNA-modified oligos
Protocol: The common AChE 3′-UTR sequence was obtained from AY750146 (all mRNA sequence beginning from stop codon). 3′-UTR of AChE was amplified by RT-PCR using Promega reagents and total RNA isolated with QIAGEN RNeasy kit from post-mortem human brain, with primers including XhoI, NotI restriction sites in 5′ and 3′ primer, respectively. Primer sequences used were: (5′): […], (3′) (SEQ ID NO: 111): […] (SEQ ID NO: 112). Annealing temperature of 57° C. was used. PCR product was purified with QIAGEN QiaQuick kit, size of fragment verified in agarose gel, spotted on a dry HyBond nylon membrane in 2 ul drops, cross-linked to the membrane using 1200 mJ UV burst, and baked for 1 hr at 80° C. Membrane was blocked for at least 2 hours in solution containing 50% deionized formamide, 5×SSPE, 0.5% SDS, 5×Denhardt's Solution at 50° C.; and hybridized o/night in same conditions with 5′-32P-labeled probes mimicking miRs wholly or with mismatches as indicated, washed 4 times at 37° C. in 3×SSPE, 5% SDS, 10×Denhardt's solution; once at 42° C. in 1×SSPE, 1% SDS; exposed over up to 3 days to a PhosphorImager (Molecular Dynamics/GE Healthcare) plate, and signal quantified using FujiFilm's ImageGauge 4 software.

RAW 264.7 cells = assay: NO production of LPS-challenged RAW 264.7 cells transfected with miR mimics; type: cell-based, murine
Protocol: Murine RAW 264.7 macrophage-derived cell line known to express TLR4 and respond to endotoxin by production of pro-inflammatory mediators such as Nitric Oxide (NO), prostaglandins, and cytokines as ILE IL6, and TNFalpha were used (described in the preceding examples e.g., Examples 7 and 8). Cells were grown in 5 ml flasks in a humidified atmosphere in Dulbecco's modified Eagle's medium (DMEM, Biological Industries) supplemented with 10% fetal calf serum (FCS) and 2 mM L-glutamine at 37° C., 5% CO2.
Griess method was used to determine NO2 levels in medium in which macrophages had been cultured. 100 μl of each sample+100 μl of Griess reagent (1% sulfanilamide/0.1% naphthylethylenediamine dihydrochloride/2.5% H3PO4)—were incubated 10-20 min at room temperature. Read absorbance at 546 nm in micro-ELISA reader.
miR 132 and 182* (SEQ ID NOs: 54 and 93, respectively) were LNA modified (products are designated with SEQ ID NOs. 107 and 108, respectively). A locked nucleic acid (LNA), often referred to as inaccessible RNA, is a modified RNA. Ribose moiety of LNA nucleotide is modified with an extra bridge connecting 2′ and 4′ carbons. The bridge “locks” the ribose in 3′-endo structural conformation, which is often found in A-form of DNA or RNA. LNA nucleotides can be mixed with DNA or RNA bases in the oligonucleotide whenever desired. The locked ribose conformation enhances base stacking and backbone pre-organization.
electroporation and lipofection were used for cell transfection.
Oligos containing LNA modifications on every third base (Table 4) were obtained from Sigma-Proligo. Transfection was performed with Lipofectamine 2000 (Invitrogen, Carlsbad, Calif.) using 3 μg of oligo per sample. Briefly, cells were brought to 80%-90% confluence at the time of transfection. For each transfection sample, 3 μg oligo were diluted in 1 ml of RPMI-1640 while the lipofectamine reagent was diluted in 1 ml of RPMI-1640. After 5 minutes the diluted oligo and lipofectamine were combined and incubated for 20 minutes. This was added to the cells within the 75 ml flask, containing 6 ml RPMI complete+GM-CSF ([…] final oligo concentration). […]
To determine cell viability 40 μl of thiazolyl blue tetrazolium bromide (MTT) reagent (Sigma) at 5 mg/ml was added per sample well, incubated for 30 minutes at 37° C. Medium was removed, 400 μl of DMSO was added per well and absorbance read at 550 nm Griess method was used to determine NO2 levels in conditioned medium from macrophage cultures. […] Absorbance was read at 546 nm in a micro-ELISA reader. TNF-α, IL-6 levels were measured by Enzyme-Linked Immunosorbent Assay (ELISA) according to manufacturer's procedures (R&D Systems kits, MTA00, M6000B, respectively). All absorbance results were normalized using standard curves. […]

Question: With `CC(=O)OCC[N+](C)(C)C.[Cl-]` [ACh, Acetylcholine chloride] as the compound, how does the “nitric oxide (NO) levels” value (U937 cells) read?
Answer: Its value is “reduced NO levels, and blocked the LPS-induced increases”.

Question: And the “LPS-induced IL6 increase on co-administration of ACh” value (IL-6)?
Answer: Its value is “prevented this increase”.

Question: What about the “up-regulation of inflammatory cytokines with ACh” value (IL-1β, TNFα) of the same compound?
Answer: The value was “not ACh-preventable”.

Question: And the “IL-12 levels on co-administration of ACh with LPS” value (IL-12; TgR macrophages)?
Answer: Its value is “elevated in TgR macrophages”.

Question: What about the “IL-12 levels on co-administration of ACh with LPS” value (IL-12; wild-type macrophages) of the same compound?
Answer: Its value is “significantly lowered”.

Question: And the “LPS-induced increase in TNFα on co-administration of ACh” value (TNFα)?
Answer: Its value is “significantly attenuated the LPS-induced increase in TNFα”.

Question: What about the “relocation of NFκB from the cytoplasm to the nucleus” value (NFκB) of the same compound?
Answer: The value was “significantly attenuated this effect”.

Question: Which results are given for CpG ODN 2006?
Answer: TBP transcript (TBP): suppressed; similarity of effects on the miRNA profile (covariance) (macrophage miRNAs): invoke the closest effects on the miRNA profile; miR-132 expression (spotted microarray) (macrophage miRNAs; 24 h, 1 μg/ml LPS or ODN 2006 1 uM): consistently being up-regulated; extent of change in miRNA expression (miRNAs beyond median LR=0.25) (macrophage miRNAs; LPS 1 μg/ml, CpG 1 μM, EN101 1 μM): caused the greatest change; miR-17-5p expression (macrophage miRNAs; spotted array): down-regulated by CpG alone; miR-30a-3p and miR-372 expression (macrophage miRNAs; spotted array): consistently down-regulated; miRNAs down-regulated (macrophage miRNAs; spotted array): miR-9-1*, 26a-1, 27a, 33, 93, 140, 145, 185, 221, and 298; miRNAs up-regulated (macrophage miRNAs; spotted array): miR-183, 292-3p, 302c, 361, and 381; expression of CD54 and CD40 (CD54 and CD40): enhanced expression of CD54 and CD40; splicing factor ASF/SF2 levels (ASF/SF2): reduced levels; AChmiRNA expression (AChmiRNA): suppressed; BDP1 transcript (BDP1): suppressed

Question: Which results are given for “anti-132: LNA-modified reverse-complementary oligo CG+ACC+ATG+GCT+GTA+GAC+TGT+TA (CGACCATGGCTGTAGACTGTTA; LNA at 3, 6, 9, 12, 15, 18, 21, other sugars and backbone not given here)”?
Answer: iNOS expression [1]: up-regulation of Inducible Nitric Oxide Synthetase (iNOS); AChE-S mRNA levels (AChE-S mRNA): increase in mRNA levels, albeit of the AChE-S variant alone

Question: For “miR-132 mimic: LNA-modified oligo mimicking miR-132: TA+ACA+GTC+TAC+AGC+CAT+GGT+CG (TAACAGTCTACAGCCATGGTCG; LNA at 3, 6, 9, 12, 15, 18, 21, other sugars and backbone not given here)”, which “AChE-R mRNA levels” value (AChE-R mRNA) is on record?
Answer: Its value is “dramatic decline”.

Question: And the “binding to PCR-amplified AChE 3′UTR (dot blot signal)” value [2]?
Answer: Its value is “significant binding to 20 ng doses of PCR product”.

Question: And the “AChE-S mRNA levels” value (AChE-S mRNA)?
Answer: The value was “dramatic decline”.

Question: What about the “activation of macrophage cell lines by LPS (NO production) after transfection” value (RAW 264.7 cells; LPS-exposed RAW-264.7 cells transfected with oligo (Example 13)) of the same compound?
Answer: The value was “significantly attenuate the activation of macrophage cell lines by LPS”.

Question: And the “endotoxin response (NO production) after transfection” value (RAW 264.7 cells; RAW 264.7 cells transfected or electroporated, then endotoxin challenge (Example 11))?
Answer: The value was “significantly attenuate endotoxin response”.
